Columns and labels:
[1] = target: c-Kit kinase (Homo sapiens (Human), UniProt P10721); assay: c-Kit biochemical assay (AlphaScreen kinase activity)
Procedure: Assays for biochemical cell-based activity of c-kit kinase are known in the art, for example, as described in U.S. Pat. Nos. 7,498,342 and 7,846,941, the disclosures of which are hereby incorporated by reference as it relates to such assays. The c-kit (or kinase domain thereof) is an active kinase in AlphaScreen. IC50 values are determined with respect to inhibition of c-Kit kinase activity, where inhibition of phosphorylation of a peptide substrate is measured as a function of compound concentration. Compounds to be tested were dissolved in DMSO to a concentration of 30 mM. These were diluted 30 μl into 130 μl of DMSO (4 mM) and 1 μl was added to an assay plate. These were then serially diluted 1:3 (50 μl to 100 μl DMSO) for a total of 8 points. Plates were prepared such that each kinase reaction is 30 μl in 1× kinase buffer (50 mM HEPES, pH 7.2, 5 mM MgCl2, 5 mM MnCl2, 0.01% NP-40, 0.2% BSA), 5% DMSO and 10 μM ATP. Substrate was 100 nM biotin-(E4Y)3 (Open Source Biotech, Inc.). C-kit kinase was at 0.1 ng per sample. After incubation of the kinase reaction for 1 hour at room temperature, 5 μl of donor beads (Streptavidin coated beads (Perkin Elmer Life Science) final concentration 1 μg/ml) in stop buffer (50 mM EDTA in 1× kinase buffer) was added, the sample was mixed and incubated for 30 minutes at room temperature before adding […] of acceptor beads (PY30 coated beads (Perkin Elmer Life Science) final concentration 1 μg/ml) in stop buffer. The samples were incubated for 60 minutes at room temperature and the signal per well was read on AlphaQuest reader. Phosphorylated substrate results in binding of the PY30 antibody and association of the donor and acceptor beads such that signal correlates with kinase activity. The signal vs. compound concentration was used to determine the IC50.
Compounds were also tested using a similar assay with a 10-fold higher ATP concentration. For these samples, compounds to be tested were dissolved in DMSO to a concentration of 30 mM. These were diluted 30 μl into 130 μl of DMSO (4 mM) and 1 μl was added to an assay plate. These were then serially diluted 1:3 (50 μl to 100 μl DMSO) for a total of 8 points. Plates were prepared such that each kinase reaction is 30 μl in 1× kinase buffer (25 mM HEPES, pH 7.5, 2 mM MgCl2, 2 mM MnCl2, 0.01% […], 1 mM DTT, and 0.001% BSA), 5% DMSO and 100 μM ATP. Substrate was 30 nM biotin-(E4Y)10 (Upstate Biotech, Cat#12-440). C-kit kinase was at 1 ng per sample. After incubation of the kinase reaction for 1 hour at room temperature, 5 μl of donor beads (Streptavidin coated beads (Perkin Elmer Life Science) final concentration 10 μg/ml) in stop buffer (25 mM HEPES pH 7.5, 100 mM EDTA, 0.3% BSA) was added, the sample was mixed and incubated for 30 minutes at room temperature before adding 5 μl of acceptor beads (PY30 coated beads (Perkin Elmer Life Science) final concentration 10 μg/ml) in stop buffer. The samples were incubated for 60 minutes at room temperature and the signal per well was read on AlphaQuest or Envision reader (Perkin Elmer Life Science). Phosphorylated substrate results in binding of the PY30 antibody and association of the donor and acceptor beads such that signal correlates with kinase activity. The signal vs. compound concentration was used to determine the IC50.
The c-kit enzyme used in the above assay was either obtained from Cell Signaling Technology (Cat. #7754) or was prepared as follows: A plasmid encoding kit (DNA and encoded protein sequences shown below) was engineered using common polymerase chain reaction (PCR) methods. Complementary DNA cloned from various human tissues were purchased from Invitrogen, and these were used as substrates in the PCR reactions. Specific custom synthetic oligonucleotide primers were designed to initiate the PCR product, and also to provide the appropriate restriction enzyme cleavage sites for ligation with the plasmids. […]

[2] = system: BaF3-FL KIT D816V or BaF3-FL KIT V560G/D816V cell line; assay: Cell-based assays of c-Kit mutant kinase activity (cell proliferation, ATPlite); conditions: at least one of the c-kit cell assays of Example 7
Procedure: The c-Kit mutant D816V inhibitors were assessed using an engineered BaF3-FL KIT D816V or BaF3-FL KIT V560G/D816V cell line. The BaF3-FL KIT D816V cell lines were created by introduction of KIT mutant (D816V) full length constructs that render the cells dependent on the introduced kinase for growth. Inhibitors of c-Kit mutant D816V kinase reduce or eliminate the mediated c-kit mutant D816V kinase activation, resulting in reduced cell proliferation of the BaF3-FL Kit mutant D816V cells. This inhibition is measured by the effect of compound concentration on cell growth to assess IC50 values. BaF3-FL KIT D816V cells were seeded at 1×10^4 cells per well of a 96 well cell culture plate in 50 μl of cell culture medium of RPMI Medium 1× (Invitrogen #11875-093) supplemented with 10% FBS (Invitrogen #10438), 1% Non Essential Amino Acids (Invitrogen #11140), 1% Penicillin Streptomycin (Invitrogen #15140), 1% L-Glutamine (Invitrogen #25030-081). Compounds were dissolved in DMSO at a concentration of 5 mM and were serially diluted 1:3 for a total of eight points and added to the cells to a final maximum concentration of 10 μM in 100 μl cell culture medium (final concentration 0.2% DMSO). Cells were also treated with Dasatinib as a positive control. The cells were incubated at 37° C., 5% CO2 for three days. ATPlite Buffer (Perkin Elmer #6016739) and substrate were equilibrated to room temperature, and enzyme/substrate Recombinant Firefly Luciferase/D-Luciferin was reconstituted. The cell plates were equilibrated to room temperature for 30 minutes, then lysed by addition of 25 μL per well of the ATPlite Reagent. The plate was mixed for 5 minutes on a plate shaker to lyse the cells. The plates were read on a Tecan Safire using Luminescence protocol modified to read 0.1s per well. The luminescence reading assesses the ATP content, which correlates directly with cell number such that the reading as a function of compound concentration is used to determine the IC50 value.
Plasmids P75635 and P75565 were engineered for mammalian cell expression. In both plasmids, full-length human v-kit Hardy-Zuckerman 4 feline sarcoma viral oncogene homolog gene (NCBI accession NM_000222, KIT, residues M1-V976) was subcloned into the pCI-Neo vector (Promega E1841). Plasmid P75635 contains the mutation of residue Aspartic acid 816 to Valine. Plasmid P75565 contains the double mutation of residues Valine 560 to Glycine and Aspartic acid 816 to Valine. The pCI-neo Mammalian Expression Vector carries the human cytomegalovirus (CMV) immediate-early enhancer/promoter region to promote constitutive expression of KIT and contains the neomycin phosphotransferase gene, a selectable marker.
It is understood that the results of these assays may vary as assay conditions are varied. Inhibition levels determined under the conditions described herein represent a relative activity for the compounds tested under the specific conditions employed. The cell based assays are likely to show variability due to the complexity of the system and the sensitivity thereof to any changes in the assay conditions. […] In some instances, the compounds were not tested in all of the assays, or assay results were not valid.

[3] = target: c-kit mutant D816V (Homo sapiens (Human), UniProt P10721, D816V/DEL694-753); assay: c-Kit mutant D816V biochemical assay (AlphaScreen kinase activity)
Procedure: The c-kit mutant D816V (or kinase domain thereof) is an active kinase in AlphaScreen. IC50 values are determined with respect to inhibition of c-Kit mutant D816V kinase activity, where inhibition of phosphorylation of a peptide substrate is measured as a function of compound concentration. Compounds to be tested were dissolved in DMSO to a concentration of 30 mM. These were diluted […] of DMSO (4 mM) and 1 μl was added to an assay plate. These were then serially diluted 1:3 (50 μl to […] DMSO) for a total of 8 points. Plates were prepared such that each kinase reaction is […] in 1× kinase buffer (25 mM HEPES, pH 7.2, 8 mM MgCl2, 2 mM MnCl2, 50 mM NaCl, 0.01% Brij, 1 mM DTT, 0.01% BSA), 5% DMSO and 10 μM ATP. Substrate was 30 nM biotin-(E4Y)10 (EMD Millipore, Cat#12-440). C-kit mutant D816V kinase was at 0.75 ng per sample. After incubation of the kinase reaction for 30 minutes at room temperature, 5 μl of donor beads (Streptavidin coated beads (Perkin Elmer Life Science) final concentration 7.5 μg/ml) in stop buffer (25 mM Hepes pH 7.5, 100 mM EDTA, 0.01% BSA) was added, the sample was mixed and incubated for 30 minutes at room temperature before adding […] of acceptor beads (PY30 coated beads (Perkin Elmer Life Science) final concentration 7.5 μg/ml) in stop buffer. The samples were incubated for 60 minutes at room temperature and the signal per well was read on EnVision reader. Phosphorylated substrate results in binding of the PY30 antibody and association of the donor and acceptor beads such that signal correlates with kinase activity. The signal vs. compound concentration was used to determine the IC50.
Recombinant c-kit mutant D816V (residues 551-934, kinase insertion domain residues 694-753 deleted) with a 6×-histidine N-terminal tag (SEQ ID NO: 3) was expressed in E. coli Arctic Express (DE3) RIL (Stratagene). Cells were grown in Terrific Broth (TB) media to an OD600 of 0.6 at 37° C. at which temperature was reduced to 10° C., protein was induced with 1.0 mM IPTG for 18 hours and harvested by centrifugation at 8000×g for 30 minutes. Cells were re-suspended in 0.1M KPO4 pH 8.0, 250 mM NaCl, 10% Glycerol, 0.75% NP-40, 25 mM Imidazole, 5 mM BME with 0.2 mg/ml Lysosyme, 2.0 mM PMSF, 25 μg/ml DNAse I, incubated in ice for 30 minutes and lyzed with a cell disruptor (MicroFluidics). The lysate was clarified by centrifugation at 30,000×g for 2 hours. The protein was captured with Talon resin (Clontech). Contaminating proteins were washed off with 25 mM Tris-HCl pH 8.3, 250 mM NaCl, 15% Glycerol, 1% Triton X-100, and protein eluted using 100 mM EDTA. The protein was further purified using Gel Filtration column 26/600 Superdex 300 (GE) in 50 mM Tris-HCl , pH 8.0, 250 mM NaCl, 15% Glycerol, 5 mM BME. The protein was aliquoted and flash-frozen in liquid Nitrogen.

Chain of c-kit mutant D816V (P10721 other isoform, or with tags, fused parts or gaps D816V/del 694-753): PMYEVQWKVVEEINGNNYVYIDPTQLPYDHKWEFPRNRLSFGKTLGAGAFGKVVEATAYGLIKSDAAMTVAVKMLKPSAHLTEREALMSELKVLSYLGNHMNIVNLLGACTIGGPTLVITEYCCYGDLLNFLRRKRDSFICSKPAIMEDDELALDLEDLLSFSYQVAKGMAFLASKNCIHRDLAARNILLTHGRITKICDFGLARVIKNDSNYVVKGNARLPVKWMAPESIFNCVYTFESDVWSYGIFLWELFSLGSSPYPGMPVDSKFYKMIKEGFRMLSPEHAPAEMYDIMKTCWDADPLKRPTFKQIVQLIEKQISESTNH
Chain of c-Kit kinase (P10721 26-976): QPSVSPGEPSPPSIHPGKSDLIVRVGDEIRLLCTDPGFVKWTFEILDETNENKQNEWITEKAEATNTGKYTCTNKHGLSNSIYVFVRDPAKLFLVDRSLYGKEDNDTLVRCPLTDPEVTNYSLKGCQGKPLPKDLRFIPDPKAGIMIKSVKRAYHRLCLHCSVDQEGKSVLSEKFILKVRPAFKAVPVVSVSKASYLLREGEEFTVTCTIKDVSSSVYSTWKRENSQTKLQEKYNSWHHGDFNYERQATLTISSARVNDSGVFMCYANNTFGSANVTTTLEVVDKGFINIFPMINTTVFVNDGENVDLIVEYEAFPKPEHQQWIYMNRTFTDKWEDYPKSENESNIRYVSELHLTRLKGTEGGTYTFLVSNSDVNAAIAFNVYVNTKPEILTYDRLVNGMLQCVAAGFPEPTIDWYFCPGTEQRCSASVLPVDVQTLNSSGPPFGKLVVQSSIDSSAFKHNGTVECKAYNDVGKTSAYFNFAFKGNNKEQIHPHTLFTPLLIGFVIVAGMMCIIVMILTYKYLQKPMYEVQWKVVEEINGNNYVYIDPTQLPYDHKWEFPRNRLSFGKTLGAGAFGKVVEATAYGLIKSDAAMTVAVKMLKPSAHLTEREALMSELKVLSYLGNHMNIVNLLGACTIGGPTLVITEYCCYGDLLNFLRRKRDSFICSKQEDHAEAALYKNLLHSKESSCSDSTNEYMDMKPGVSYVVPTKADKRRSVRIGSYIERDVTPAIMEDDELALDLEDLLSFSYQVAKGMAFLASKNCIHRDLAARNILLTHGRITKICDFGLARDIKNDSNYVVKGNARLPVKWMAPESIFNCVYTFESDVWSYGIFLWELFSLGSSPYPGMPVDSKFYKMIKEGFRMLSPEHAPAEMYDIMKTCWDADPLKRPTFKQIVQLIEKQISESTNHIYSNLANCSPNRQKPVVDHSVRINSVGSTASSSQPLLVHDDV

SMILES: Cc1[nH]c(C2CCN(c3ncnc4[nH]c(-c5ccncc5)cc34)CC2)nc1-c1ccccc1 [P-3001, 4-[4-(5-methyl-4-phenyl-1H-imidazol-2-yl)-1-piperidyl]-6-(4-pyridyl)-7H-pyrrolo[2,3-d]pyrimidine]
- IC50 [1]: 0.0001 to 1 µM
- IC50 [2]: < 10 µM

SMILES: Cc1nc(C2CCN(c3ncnc4[nH]c(-c5cccc(Cl)c5)cc34)CC2)[nH]c1-c1ccccc1 [P-3082, 6-(3-chlorophenyl)-4-[4-(4-methyl-5-phenyl-1H-imidazol-2-yl)-1-piperidyl]-7H-pyrrolo[2,3-d]pyrimidine]
- IC50 [3]: 0.0001 to 1 µM
- IC50 [2]: < 10 µM

SMILES: COc1cc(-c2[nH]c(C3CCN(c4ncnc5[nH]c(-c6ccc(F)cc6)cc45)CC3)nc2C)ccc1C [P-3103, 6-(4-fluorophenyl)-4-[4-[5-(3-methoxy-4-methyl-phenyl)-4-methyl-1H-imidazol-2-yl]-1-piperidyl]-7H-pyrrolo[2,3-d]pyrimidine]
- IC50 [1]: 1 to 10 µM
- IC50 [3]: 0.0001 to 1 µM

SMILES: COc1ccc(-c2[nH]c(C3CCN(c4ncnc5[nH]c(-c6ccc(F)cc6)cc45)CC3)nc2C(F)(F)F)cc1 [P-3147, 6-(4-fluorophenyl)-4-[4-[5-(4-methoxyphenyl)-4-(trifluoromethyl)-1H-imidazol-2-yl]-1-piperidyl]-7H-pyrrolo[2,3-d]pyrimidine]
- IC50 [3]: 0.0001 to 1 µM
- IC50 [2]: < 10 µM

SMILES: Cc1cc2c(N3CCC(C)(c4nc(C)c(-c5ccc(Cl)cc5)[nH]4)CC3)ncnc2[nH]1 [P-3174, 4-[4-[5-(4-chlorophenyl)-4-methyl-1H-imidazol-2-yl]-4-methyl-1-piperidyl]-6-methyl-7H-pyrrolo[2,3-d]pyrimidine]
- IC50 [3]: 0.0001 to 1 µM
- IC50 [2]: < 10 µM

Reference: patent US9771369B2, “Compounds and methods for kinase modulation, and indications therefor” (Plexxikon Inc., priority 2014, dated 2017)
